From PubChem BioAssay AID1919016 (Molecular Pharmacology Branch, DTP, NCI, 2023)
Where “and” joins values, the source holds several entries; their conditions need not be identical. Identical values can stand only once.

Tested on: NCI-H196 complex spheroid growth, percent test/control
Experiment: Anticancer human tumor NCI-H196 cell line growth inhibition [AhR];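 further: seven days of drug exposure starting three days after plating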;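 on viability, T/C: 100% = DMSO vehicle control wells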
Conditions: for viability, T/C: stronger effect = lower value
Text: Multicellular complex tumor spheroid response to aryl hydrocarbon receptor antagonists in combination with a variety of drugs and investigational agents in selected tumor cell lines
The current study was undertaken to assess response to aryl hydrocarbon receptor antagonists in combination with standard-of-care drugs and investigational agents in solid tumor complex spheroid models. Complex spheroids include a stromal component modeled by human endothelial cells (HUVEC) and fibroblasts modeled by human mesenchymal stem cells (MSCs). The concentration ranges selected for each drug and investigational agent were based upon clinically achievable concentrations if the clinical Cmax of the agent was known.
Compounds. The drugs and investigational agents: BAY 2416964 (NSC825713), GNF351 (NSC835774), CH-223191 (NSC835775), CPI-455 (NSC825282), aza-TdCyd (NSC777586), decitabine (NSC127716), belinostat (NSC758774), entinostat (NSC756642), pevonedistat (NSC761192), tazemetostat (NSC777109), talazoparib (NSC765396), olaparib (NSC753686), selinexor (NSC780203), nedisertib (M3814, NSC802822), bortezomib (NSC756655), venetoclax (NSC766270), doxorubicin (NSC123127), elimusertib (BAY189344, NSC800525), ceralasertib (AZD6738, NSC777638), TAK-243 (NSC785004), alisertib (NSC759677), etoposide (NSC141540), topotecan (NSC609699), eribulin (NSC707389), gemcitabine (NSC613327), carboplatin (NSC241240), cisplatin (NSC119875), and SN-38 (NSC673596) were obtained from the National Cancer Institute (NCI) Developmental Therapeutics Program Chemical Repository (32). The FDA-approved anticancer drug set is available from the Developmental Therapeutics Program at https://dtp.cancer.gov/organization/dscb/obtaining/available plates.htm. […] The stock solutions were prepared in dimethyl sulfoxide (DMSO, Sigma-Aldrich, St. Louis, MO, cat. D2650), except for the platinum compounds which were prepared in saline (Quality Biological, Gaithersburg, MD, cat. 114-055-101), at 800-fold the tested concentration and stored at -70 degrees C prior to their use. All drugs and investigational agents were tested over a range starting from a high concentration at or near the clinical Cmax and decreasing in half-log increments. If the clinical Cmax for an agent had not been determined, the highest concentration tested was 10 microM (Table 1).
Cell Culture. All cells were maintained in an incubator at 37 degrees C and 5% CO2 with 95% humidity. The PDC lines were cultured according to standard operating procedures established by the NCI PDMR (https://pdmr.cancer.gov). Briefly, all PDCs were thawed and cultured in Matrigel-coated flasks prepared with a working solution of 1X Ham's F-12 nutrient mix, without supplementation (Invitrogen, Waltham, MA, cat. 11765054), 100 U/mL penicillin-streptomycin (Invitrogen, cat. 15140122), and 2.5% Matrigel (Corning Inc., Corning, NY, cat. 354248) for the first three passages. All PDCs were cultured in complete DMEM/F-12 media containing advanced DMEM/F-12 (Invitrogen, cat. 12634028), 4.9% defined fetal bovine serum, heat inactivated (HyClone Laboratories Inc., Logan, UT, cat. SH30070.03HI), 389 ng/mL hydrocortisone (Sigma-Aldrich, cat. H4001), 9.7 ng/mL human EGF recombinant protein (Invitrogen, cat. PHG0313), 23.4 microg/mL adenine (Sigma-Aldrich, cat. A2786), 97.3 U/mL penicillin-streptomycin (Invitrogen, cat. 15140122), 1.9 mM L-glutamine (Invitrogen, cat. 25030081), and 9.7 microM Y-27632 dihydrochloride (Tocris Bioscience, Bristol, United Kingdom, cat. 1254). The PDCs were cultured in complete DMEM/F12 media without 10 microM Y-27632 dihydrochloride for at least two passages prior to the screen. The established cell lines NCI-H1341 and […] were cultured in DMEM/F-12, HEPES (Invitrogen, cat. 11330032), 5% defined fetal bovine serum (HyClone Laboratories Inc., cat. SH30070.03), ITS premix universal culture supplement [insulin (5 microg/mL), transferrin (5 microg/mL), and selenious acid (5 ng/mL)] […]

## O=C(C=Cn1cnc(-c2cc(C(F)(F)F)cc(C(F)(F)F)c2)n1)NNc1cnccn1
Compound 0.00949 µM
  viability, T/C: 73.6% and 72.9% and 69.5%
Compound 0.03 µM
  viability, T/C: 63% and 56.7% and 62.2%
Compound 0.0949 µM
  viability, T/C: 29.8% and 8.08% and 13.8%
Compound 0.3 µM
  viability, T/C: 8.48% and 5.65% and 9.96%
Compound 0.949 µM
  viability, T/C: 8.74% and 6.18% and 8.91%
Compound 3 µM
  viability, T/C: 6.48% and 6.56% and 8.45%
Curve of compound
  IC50: 47.2 nM and 35.2 nM and 40.1 nM

## O=C(C=Cc1cccc(S(=O)(=O)Nc2ccccc2)c1)NO + Cc1ccccc1N=Nc1ccc(NC(=O)c2ccnn2C)c(C)c1
Curve of first compound, second compound 0.1 µM
  IC50: 1480 nM
Curve of first compound, second compound 0.316 µM
  IC50: 1760 nM
Curve of first compound, second compound 1 µM
  IC50: 1720 nM
Curve of first compound, second compound 3.16 µM
  IC50: 1870 nM
Curve of first compound, second compound 10 µM
  IC50: 2030 nM
Second compound 0.1 µM, first compound 0.0316 µM
  viability, T/C: 93%
Second compound 0.1 µM, first compound 0.1 µM
  viability, T/C: 100%
Second compound 0.1 µM, first compound 0.316 µM
  viability, T/C: 87.8%
Second compound 0.1 µM, first compound 1 µM
  viability, T/C: 62%
Second compound 0.1 µM, first compound 3.16 µM
  viability, T/C: 25.5%
Second compound 0.1 µM, first compound 10 µM
  viability, T/C: 0.66%
Second compound 0.316 µM, first compound 0.0316 µM
  viability, T/C: 92.7%
Second compound 0.316 µM, first compound 0.1 µM
  viability, T/C: 96.5%
Second compound 0.316 µM, first compound 0.316 µM
  viability, T/C: 104%
Second compound 0.316 µM, first compound 1 µM
  viability, T/C: 69.9%
Second compound 0.316 µM, first compound 3.16 µM
  viability, T/C: 27.4%
Second compound 0.316 µM, first compound 10 µM
  viability, T/C: 0.67%
Second compound 1 µM, first compound 0.0316 µM
  viability, T/C: 102%
Second compound 1 µM, first compound 0.1 µM
  viability, T/C: 94.5%
Second compound 1 µM, first compound 0.316 µM
  viability, T/C: 90.4%
Second compound 1 µM, first compound 1 µM
  viability, T/C: 74.2%
Second compound 1 µM, first compound 3.16 µM
  viability, T/C: 23.7%
Second compound 1 µM, first compound 10 µM
  viability, T/C: 3.01%
Second compound 3.16 µM, first compound 0.0316 µM
  viability, T/C: 93.6%
Second compound 3.16 µM, first compound 0.1 µM
  viability, T/C: 91.9%
Second compound 3.16 µM, first compound 0.316 µM
  viability, T/C: 91.1%
Second compound 3.16 µM, first compound 1 µM
  viability, T/C: 72%
Second compound 3.16 µM, first compound 3.16 µM
  viability, T/C: 31.3%
Second compound 3.16 µM, first compound 10 µM
  viability, T/C: 1.68%
Second compound 10 µM, first compound 0.0316 µM
  viability, T/C: 87.9%
Second compound 10 µM, first compound 0.1 µM
  viability, T/C: 90.8%
Second compound 10 µM, first compound 0.316 µM
  viability, T/C: 81.6%
Second compound 10 µM, first compound 1 µM
  viability, T/C: 72.4%
Second compound 10 µM, first compound 3.16 µM
  viability, T/C: 36.4%
Second compound 10 µM, first compound 10 µM
  viability, T/C: 0.98%
